Six molecules from patent publication US11447505B1, “Pyrrolo[2,3-b]pyridine compounds and their use in the treatment of cancer” (priority 2017, dated 2022) can be followed below.

One test addresses ROCK2 (Homo sapiens (Human), UniProt O75116). Kind of test: ROCK2 kinase assay (IMAP fluorescence polarization). The class given is biochemical. For orientation: In fluorescence polarisation assays a small probe gives low polarisation when free and higher when bound to something large.
For test [1], the target named is T1, MRCKβ (Homo sapiens (Human), UniProt Q9Y5S2). Briefly: MRCKβ kinase assay (IMAP fluorescence polarization). The class given is biochemical. The source says:
(§1) MRCKα, MRCKβ, ROCK1 and ROCK2 Kinase Assays

For test [2], the target named is T2, ROCK1 (Homo sapiens (Human), UniProt Q13464). Kind of test: biochemical.
T2 sequence (Q13464 2-1354 limits assumed): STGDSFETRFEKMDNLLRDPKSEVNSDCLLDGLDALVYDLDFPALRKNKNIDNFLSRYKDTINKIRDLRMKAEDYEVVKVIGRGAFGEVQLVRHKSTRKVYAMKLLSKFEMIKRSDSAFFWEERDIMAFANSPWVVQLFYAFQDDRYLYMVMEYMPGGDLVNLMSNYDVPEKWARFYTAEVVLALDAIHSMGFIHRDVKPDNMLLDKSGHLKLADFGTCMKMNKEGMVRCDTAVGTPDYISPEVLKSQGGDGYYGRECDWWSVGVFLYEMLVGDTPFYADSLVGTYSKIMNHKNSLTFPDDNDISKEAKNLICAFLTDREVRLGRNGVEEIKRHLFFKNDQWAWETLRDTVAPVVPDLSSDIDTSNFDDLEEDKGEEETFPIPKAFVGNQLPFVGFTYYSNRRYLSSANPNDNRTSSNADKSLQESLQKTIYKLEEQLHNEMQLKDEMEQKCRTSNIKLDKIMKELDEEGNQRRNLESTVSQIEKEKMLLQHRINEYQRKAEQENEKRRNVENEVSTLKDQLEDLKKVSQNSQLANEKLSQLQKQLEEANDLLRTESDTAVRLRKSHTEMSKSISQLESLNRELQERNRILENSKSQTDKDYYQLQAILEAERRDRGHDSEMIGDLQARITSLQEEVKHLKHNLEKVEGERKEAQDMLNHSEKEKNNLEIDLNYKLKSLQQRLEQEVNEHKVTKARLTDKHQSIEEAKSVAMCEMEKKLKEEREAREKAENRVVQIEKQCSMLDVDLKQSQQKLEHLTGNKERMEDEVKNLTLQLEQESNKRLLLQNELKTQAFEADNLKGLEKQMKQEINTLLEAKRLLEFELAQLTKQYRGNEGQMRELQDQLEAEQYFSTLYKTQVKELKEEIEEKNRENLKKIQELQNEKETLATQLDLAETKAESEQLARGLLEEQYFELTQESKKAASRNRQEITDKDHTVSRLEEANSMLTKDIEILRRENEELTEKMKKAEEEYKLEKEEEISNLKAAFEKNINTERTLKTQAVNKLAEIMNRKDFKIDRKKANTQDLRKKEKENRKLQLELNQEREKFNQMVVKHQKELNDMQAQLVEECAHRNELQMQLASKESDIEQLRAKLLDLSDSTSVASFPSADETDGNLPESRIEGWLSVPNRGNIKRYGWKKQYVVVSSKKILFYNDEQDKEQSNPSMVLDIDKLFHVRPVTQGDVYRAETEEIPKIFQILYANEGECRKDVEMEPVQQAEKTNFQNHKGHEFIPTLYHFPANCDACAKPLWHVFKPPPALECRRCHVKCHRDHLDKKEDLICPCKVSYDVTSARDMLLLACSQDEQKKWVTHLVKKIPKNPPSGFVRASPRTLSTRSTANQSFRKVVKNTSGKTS
Test [3] concerns the target T2, ROCK1. Kind of test: ROCK1 cellular assay (pMLC T18/S19 immunoblot, MDA-MB-231 cells with doxycycline inducible kinase domain). The class given is cell-based. On the procedure: MRCKβ, ROCK1 and ROCK2 Cellular Assays
MDA-MB-231 cells expressing doxycycline inducible ROCK1, ROCK2 or MRCKβ kinase domains were plated at 1.1×10^5 cells per well of a 12 well plate. After 24 hours, cells were treated with 1 μg/ml doxycycline for 18 hours to induce kinase domain expression and then tested over a suitable concentration range with compounds of the invention for 60 minutes. Cells were then washed with PBS and lysed with Tris-SDS lysis Buffer (50 mM Tris-HCl pH7.4, 0.5% (v/v) SDS, 1×PhosStop Inhibitors (04 906 837 001; Roche) and 1×Complete Protease Inhibitors (04 693 124 001; Roche)). Whole cell lysates were clarified by passing through QIAshredder spin columns, separated by SDS-PAGE, and quantitative immunoblotting performed using a LI-COR Odyssey IR scanner to determine pMLC (T18/S19) and α-Tubulin levels.
In general terms: A western blot detects proteins with antibodies after separation by electrophoresis.

Test [4] has as its target T1, MRCKβ. Briefly: MRCKβ cellular assay (pMLC T18/S19 immunoblot, MDA-MB-231 cells with doxycycline inducible kinase domain). The class given is cell-based. The method, boiled down: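 Kinase domain expression in MDA-MB-231 cells induced with 1 μg/ml doxycycline for 18 h, then compounds applied over a concentration range for 60 min. Lysates resolved by SDS-PAGE; pMLC (T18/S19) and α-tubulin measured by quantitative IR immunoblotting.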

The target of another test is MRCKα (Homo sapiens (Human), UniProt Q5VT25). Briefly: MRCKα kinase assay (IMAP fluorescence polarization). The class given is biochemical.
Sequence of MRCKα (Q5VT25 whole entry): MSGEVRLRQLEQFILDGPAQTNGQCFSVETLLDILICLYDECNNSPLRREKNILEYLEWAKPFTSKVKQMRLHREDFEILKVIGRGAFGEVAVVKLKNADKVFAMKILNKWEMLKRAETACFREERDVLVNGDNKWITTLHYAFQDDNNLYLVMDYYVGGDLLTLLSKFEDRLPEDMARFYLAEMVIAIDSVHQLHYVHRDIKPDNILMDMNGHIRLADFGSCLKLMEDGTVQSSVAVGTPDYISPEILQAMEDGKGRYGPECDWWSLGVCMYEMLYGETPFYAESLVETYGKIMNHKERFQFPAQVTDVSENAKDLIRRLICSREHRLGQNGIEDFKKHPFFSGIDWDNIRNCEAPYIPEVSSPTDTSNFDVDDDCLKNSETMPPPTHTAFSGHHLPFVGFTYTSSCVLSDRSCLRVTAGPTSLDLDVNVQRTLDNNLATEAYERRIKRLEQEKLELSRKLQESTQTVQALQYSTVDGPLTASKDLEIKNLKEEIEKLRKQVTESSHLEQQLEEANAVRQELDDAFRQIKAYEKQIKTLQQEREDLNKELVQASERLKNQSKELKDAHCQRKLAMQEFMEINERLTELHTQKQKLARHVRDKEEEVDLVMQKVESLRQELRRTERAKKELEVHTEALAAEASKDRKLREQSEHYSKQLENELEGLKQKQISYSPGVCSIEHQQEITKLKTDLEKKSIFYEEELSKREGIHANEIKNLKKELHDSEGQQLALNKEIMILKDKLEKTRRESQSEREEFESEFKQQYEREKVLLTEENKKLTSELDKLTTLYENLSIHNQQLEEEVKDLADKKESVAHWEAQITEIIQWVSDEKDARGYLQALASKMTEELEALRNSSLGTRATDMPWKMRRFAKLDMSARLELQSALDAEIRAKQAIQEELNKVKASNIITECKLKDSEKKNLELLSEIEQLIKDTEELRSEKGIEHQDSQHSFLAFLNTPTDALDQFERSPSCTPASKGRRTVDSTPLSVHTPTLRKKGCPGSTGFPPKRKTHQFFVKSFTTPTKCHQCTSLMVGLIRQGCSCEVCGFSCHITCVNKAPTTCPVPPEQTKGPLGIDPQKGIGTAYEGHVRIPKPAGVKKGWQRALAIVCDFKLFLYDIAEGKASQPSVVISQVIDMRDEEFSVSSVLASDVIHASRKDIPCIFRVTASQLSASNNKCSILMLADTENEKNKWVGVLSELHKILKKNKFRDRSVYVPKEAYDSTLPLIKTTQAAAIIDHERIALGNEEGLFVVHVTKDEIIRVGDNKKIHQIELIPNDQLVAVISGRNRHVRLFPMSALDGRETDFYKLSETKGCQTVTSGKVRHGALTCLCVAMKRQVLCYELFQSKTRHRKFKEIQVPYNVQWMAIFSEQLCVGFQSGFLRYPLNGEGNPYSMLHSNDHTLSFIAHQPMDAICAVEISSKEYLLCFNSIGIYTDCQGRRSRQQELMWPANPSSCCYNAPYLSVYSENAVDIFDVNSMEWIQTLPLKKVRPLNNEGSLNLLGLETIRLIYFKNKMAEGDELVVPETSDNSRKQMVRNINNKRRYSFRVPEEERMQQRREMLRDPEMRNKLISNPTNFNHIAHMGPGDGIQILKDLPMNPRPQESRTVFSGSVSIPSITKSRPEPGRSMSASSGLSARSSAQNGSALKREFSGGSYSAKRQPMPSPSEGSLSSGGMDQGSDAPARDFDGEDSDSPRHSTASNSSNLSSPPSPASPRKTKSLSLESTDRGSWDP
Excerpt: as §1

Test [5] has as its target kinase targets listed in tables 3 and 4 (Homo sapiens, UniProt Q9BXA7). Briefly: biochemical.
Test [6] deals with kinase targets listed in tables 3 and 4 (Homo sapiens, UniProt Q13464). Briefly: biochemical.
Sequence of kinase targets listed in tables 3 and 4 (Homo sapiens, UniProt Q13464) (Q13464 2-1354 limits assumed): as the sequence (Q13464 2-1354 limits assumed) above
The target in test [7] is kinase targets listed in tables 3 and 4 (Homo sapiens, UniProt Q9Y5S2). Kind of test: biochemical.
Setting [8] is: 1 μM ATP, read-out: ROCK2 Average Ki.
The mark [9] stands for this setting: 1 μM ATP, read-out: MRCK-B Average Ki.
Where [10] appears, read: MDA-MB-231 cells, doxycycline inducible kinase domain, 60 minutes, pMLC (T18/S19), read-out: Cellular assay - ROCK1 inhibition MEAN.
[11] abbreviates: MDA-MB-231 cells, doxycycline inducible kinase domain, 60 minutes, pMLC (T18/S19), read-out: Cellular assay - MRCK-b inhibition MEAN.
[12] abbreviates: 1 μM ATP, read-out: MRCK-a Average Ki.

pIC50, pKi: −log10 of the molar value. Where two headings read alike, the source gives them in different places.

Sequence of ROCK2 (O75116 whole entry): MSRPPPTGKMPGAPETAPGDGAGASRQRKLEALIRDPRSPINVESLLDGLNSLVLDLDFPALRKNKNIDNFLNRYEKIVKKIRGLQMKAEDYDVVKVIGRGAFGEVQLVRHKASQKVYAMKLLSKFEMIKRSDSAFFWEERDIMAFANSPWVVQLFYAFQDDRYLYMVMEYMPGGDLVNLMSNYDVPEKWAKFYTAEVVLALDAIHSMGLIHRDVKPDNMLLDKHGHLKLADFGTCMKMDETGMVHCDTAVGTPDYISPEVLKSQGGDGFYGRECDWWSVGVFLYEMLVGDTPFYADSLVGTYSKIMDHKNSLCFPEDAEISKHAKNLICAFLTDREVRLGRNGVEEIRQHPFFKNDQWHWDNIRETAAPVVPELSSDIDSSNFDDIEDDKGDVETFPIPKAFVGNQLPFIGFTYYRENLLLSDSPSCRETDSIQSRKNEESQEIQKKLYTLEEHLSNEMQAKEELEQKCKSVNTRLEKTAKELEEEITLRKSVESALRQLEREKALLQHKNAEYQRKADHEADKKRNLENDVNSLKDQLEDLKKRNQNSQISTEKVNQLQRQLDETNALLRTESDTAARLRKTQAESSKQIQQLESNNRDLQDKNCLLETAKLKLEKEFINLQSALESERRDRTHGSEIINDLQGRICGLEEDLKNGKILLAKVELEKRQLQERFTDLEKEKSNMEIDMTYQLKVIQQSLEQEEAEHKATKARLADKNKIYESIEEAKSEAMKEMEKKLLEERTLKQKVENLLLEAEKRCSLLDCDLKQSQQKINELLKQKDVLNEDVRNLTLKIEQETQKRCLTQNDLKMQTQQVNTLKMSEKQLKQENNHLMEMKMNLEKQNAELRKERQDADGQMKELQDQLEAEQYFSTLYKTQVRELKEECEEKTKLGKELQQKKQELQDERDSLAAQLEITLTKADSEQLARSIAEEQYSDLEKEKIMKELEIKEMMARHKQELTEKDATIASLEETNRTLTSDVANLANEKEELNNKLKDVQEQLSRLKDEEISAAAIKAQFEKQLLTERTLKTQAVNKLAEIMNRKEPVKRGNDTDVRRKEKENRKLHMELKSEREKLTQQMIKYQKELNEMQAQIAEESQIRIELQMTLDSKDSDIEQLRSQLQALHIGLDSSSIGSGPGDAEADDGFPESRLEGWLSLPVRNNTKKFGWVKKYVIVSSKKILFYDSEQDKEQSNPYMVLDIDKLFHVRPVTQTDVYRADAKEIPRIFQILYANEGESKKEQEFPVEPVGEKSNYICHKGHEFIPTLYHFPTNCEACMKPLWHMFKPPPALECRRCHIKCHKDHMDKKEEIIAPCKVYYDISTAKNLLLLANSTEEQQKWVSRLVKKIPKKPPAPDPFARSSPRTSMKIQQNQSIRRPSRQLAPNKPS
Sequence of kinase targets listed in tables 3 and 4 (Homo sapiens, UniProt Q9BXA7) (Q9BXA7 whole entry, looked up): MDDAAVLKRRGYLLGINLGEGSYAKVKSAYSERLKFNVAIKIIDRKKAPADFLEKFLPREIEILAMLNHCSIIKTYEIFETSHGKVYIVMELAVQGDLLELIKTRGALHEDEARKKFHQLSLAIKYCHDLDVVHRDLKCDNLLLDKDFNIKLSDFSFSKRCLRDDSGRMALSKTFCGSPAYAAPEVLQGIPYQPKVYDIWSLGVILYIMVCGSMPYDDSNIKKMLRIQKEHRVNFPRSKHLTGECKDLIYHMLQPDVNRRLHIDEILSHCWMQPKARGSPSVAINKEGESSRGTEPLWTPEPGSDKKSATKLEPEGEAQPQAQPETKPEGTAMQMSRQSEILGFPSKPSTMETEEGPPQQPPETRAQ

As to `c1csc(-c2c[nH]c3nccc(O[C@@H]4CCCNC4)c23)n1` [Example E212, 2-[4-[[(3R)-3-piperidyl]oxy]-1H-pyrrolo[2,3-b]pyridin-3-yl]thiazole], the pKi on ROCK2 (setting [8]) was 8.12; on MRCKβ [1] (setting [9]), 9.73; at ROCK1 [2], 7.52; on MRCKα (setting [12]), 9.73. Also, the pIC50 at ROCK1 [3] (setting [10]) was 4.84; on MRCKβ [4] (setting [11]) it was 6.37.
As to `c1csc(-c2c[nH]c3nccc(N4CC[C@@]5(CCCN5)C4)c23)n1` [Example E134, 2-[4-[(5S)-1,7-diazaspiro[4.4]nonan-7-yl]-1H-pyrrolo[2,3-b]pyridin-3-yl]thiazole], the pKi on ROCK2 was 7.52; at MRCKβ [1], 9.52; on ROCK1 [2], 6.95; at MRCKα, 9.72. In addition, the figures for the pIC50 against ROCK1 [3] and against MRCKβ [4] were less than 4.52 and 6.10, respectively.
As to `CCN1CCCCC12CCCN(c1ccnc3[nH]cc(-c4nccs4)c13)C2` (stereo not drawn) [Example E209, 2-[4-(1-ethyl-1,8-diazaspiro[5.5]undecan-8-yl)-1H-pyrrolo[2,3-b]pyridin-3-yl]thiazole], the pKi on ROCK2 (setting [8]) was 7.52; at MRCKβ [1] (setting [9]), 10.41; at ROCK1 [2], 6.90; on MRCKα (setting [12]), 10.00. Further, the figures for the pIC50 on ROCK1 [3] (setting [10]) and on MRCKβ [4] (setting [11]) were less than 4.52 and 6.96, respectively.
Consider `c1cc(N2CCC[C@@]3(CCCCN3)C2)c2c(-c3ccsn3)c[nH]c2n1` [Example E120, 3-[4-[(6S)-1,8-diazaspiro[5.5]undecan-8-yl]-1H-pyrrolo[2,3-b]pyridin-3-yl]isothiazole], for which the pKi was 8.32 at ROCK2 (setting [8]), 10.83 at MRCKβ [1] (setting [9]), 7.62 at ROCK1 [2] and 11.31 at MRCKα (setting [12]). Further, the pIC50 at ROCK1 [3] (setting [10]) was 4.81; at MRCKβ [4] (setting [11]), 7.88.
Turning to `c1cc(N2CCC[C@@]3(CCCCN3)C2)c2c(-c3ncsn3)c[nH]c2n1` [Example E116, 3-[4-[(6S)-1,8-diazaspiro[5.5]undecan-8-yl]-1H-pyrrolo[2,3-b]pyridin-3-yl]-1,2,4-thiadiazole], the pKi was 7.40 at ROCK2 (setting [8]), 10.91 on MRCKβ [1] (setting [9]), 7.07 at ROCK1 [2] and 10.91 at MRCKα (setting [12]). Besides, the figures for the pIC50 on ROCK1 [3] (setting [10]) and at MRCKβ [4] (setting [11]) were less than 4.52 and 6.85, respectively.
As to `c1csc(-c2c[nH]c3nccc(N4CCC[C@@]5(CCCCN5)C4)c23)n1` [Example E150, 2-[4-[(6S)-1,8-diazaspiro[5.5]undecan-8-yl]-1H-pyrrolo[2,3-b]pyridin-3-yl]thiazole], the pKi at ROCK2 (setting [8]) was 7.66; at MRCKβ [1] (setting [9]) it was 10.61; at ROCK1 [2], 7.25; in test [5] it was 5.69; in [6], 6.60; in [7], 8.94. The pKi at MRCKα (setting [12]) is 10.48. Besides, the pIC50 at ROCK1 [3] (setting [10]) is less than 4.52; in test [5] it was 5.36; in test [6], 6.39; in test [7], 8.16; at MRCKβ [4] (setting [11]), 7.37.

A word on the pKi: it is the Ki on a negative log10 scale, so that one unit is a factor of ten.
